Settings: instrument: DT, single field, calibrated with Agilent tune mix (Agilent)

SMILES | collision cross section (N2) ([M-H]-) | collision cross section (N2) ([M+H]+) | other results
O=P(O)(O)OC[C@H]1O[C@@H](O)C[C@@H]1O [2-Deoxyribose 5-phosphate] | 132.47 Å² |  | 
CNc1nc(=O)c2ncn([C@@H]3O[C@H](CO)[C@@H](O)[C@H]3O)c2[nH]1 [2-Methylguanosine] |  |  | collision cross section (N2) ([M+Na-2H]-): 166.02 Å²; collision cross section (N2) ([M+Na]+): 178.4 Å²
O=C(O)CCCC(=O)C(=O)O [2-Oxoadipic acid] |  |  | collision cross section (N2) ([M+Na-2H]-): 129.65 Å²
N[C@@H](Cc1ccc(O)c(O)c1)C(=O)O [3,4-Dihydroxy-L-phenylalanine] | 138.21 Å² | 148.7 Å² | 
O=C(O)Cc1ccc(O)c(O)c1 [3,4-Dihydroxyphenylacetic acid] |  |  | collision cross section (N2) ([M-H2O-H]-): 125.7 Å²
NC(Cc1cc(I)c(Oc2ccc(O)cc2)c(I)c1)C(=O)O (configuration not stated) [3,5-Diiodothyronine] | 186.44 Å² | 198.2 Å² | 
CC(CC(=O)O)CC(=O)O [3-Methylglutaric acid] | 122.88 Å² |  | 
Cn1c(=O)[nH]c(=O)c2[nH]c(=O)[nH]c21 [3-Methyluric acid] | 128.86 Å² |  | 
O=C(O)[C@H](O)COP(=O)(O)O [3-Phospho-D-glycerate] |  |  | collision cross section (N2) ([M+Na]+): 139.4 Å²
C[C@]12CC[C@@H](O)C[C@H]1CC[C@@H]1[C@@H]2[C@@H](O)C[C@]2(C)[C@@H](C(=O)CO)CC[C@@H]12 [3alpha,11beta,21-Trihydroxy-5beta-pregnan-20-one] | 187.18 Å² |  | collision cross section (N2) ([M+H-H2O]+): 179.6 Å²
NC(N)=NCCCC(=O)O [4-Guanidinobutyric acid] |  | 129.7 Å² | 
O=C(O)c1ccc([O-])cc1 [4-Hydroxybenzoate] | 119.33 Å² |  | collision cross section (N2) ([M+H-H2O]+): 119 Å²
COc1ccc(CC(=O)O)cc1 [4-Methoxyphenylacetic acid] |  | 137.4 Å² | 
Nc1nc(=O)c2c([nH]1)NCC1CN(c3ccc(C(=O)NC(CCC(=O)O)C(=O)O)cc3)CN21 (configuration not stated) [5,10-methylene-THF] | 192.06 Å² |  | 
N[C@@H](Cc1c[nH]c2ccc(O)cc12)C(=O)O [5-Hydroxy-L-tryptophan] | 148.86 Å² |  | collision cross section (N2) ([M+Na]+): 152.2 Å²
O=C(O)c1ccc(=O)[nH]c1 [6-Hydroxynicotinic acid] | 118.52 Å² | 129.5 Å² | 
O=C(O)[C@H](O)[C@@H](O)[C@H](O)[C@H](O)COP(=O)(O)O [6-Phospho-D-gluconate] |  |  | collision cross section (N2) ([M+Na]+): 157.3 Å²
C[C@H](O)[C@H](O)C1=Nc2c([nH]c(N)nc2=O)NC1 [7,8-Dihydrobiopterin] |  | 154.1 Å² | 
Cn1c(=O)[nH]c2[nH]c(=O)[nH]c(=O)c21 [7-Methyluric acid] | 129.35 Å² |  | 
CC1=C(/C=C/C(C)=C\C=C\C(C)=C\C=O)C(C)(C)CCC1 [9-cis-Retinal] |  | 170.1 Å² | 
CC1=C(/C=C/C(C)=C\C=C\C(C)=C\C(=O)O)C(C)(C)CCC1 [9-cis-Retinoic acid] | 200.01 Å² |  | collision cross section (N2) ([M+H-H2O]+): 169.6 Å²
CC12CCC(=O)C=C1CCC1C2CCC2(C)C(C(=O)CO)CCC12 (configuration not stated) [11-Deoxycorticosterone] | 184.42 Å² | 186.5 Å² | 
C[C@]12CC[C@H]3[C@@H](CC=C4C[C@@H](O)CC[C@@]43C)[C@@H]1CC[C@@H]2C(=O)CO [21-Hydroxypregnenolone] | 185.89 Å² |  | collision cross section (N2) ([M+H-H2O]+): 178.4 Å²
CC(C)CC[C@@H](O)[C@@H](C)[C@H]1CC[C@H]2[C@@H]3CC=C4C[C@@H](O)CC[C@]4(C)[C@H]3CC[C@]12C [22beta-Hydroxycholesterol] | 217.74 Å² |  | collision cross section (N2) ([M+H-H2O]+): 205.2 Å²
C=C1CC[C@H](O)C/C1=C/C=C1\CCC[C@]2(C)[C@@H]([C@H](C)CCCC(C)(C)O)CC[C@@H]12 [25-hydroxyvitamin D3] | 200.06 Å² |  | 
Nc1ncnc2c1ncn2[C@@H]1O[C@H](COP(=O)(O)OP(=O)(O)OC[C@@H](O)[C@@H](O)[C@@H](O)C=O)[C@@H](O)[C@H]1O [ADP Ribose] |  | 211.4 Å² | 
CC(=O)CC(=O)SCCNC(=O)CCNC(=O)[C@H](O)C(C)(C)COP(=O)(O)OP(=O)(O)OC[C@H]1O[C@@H](n2cnc3c(N)ncnc32)[C@H](O)[C@@H]1OP(=O)(O)O [Acetoacetyl coenzyme A] | 252.94 Å² | 247.8 Å² | 
CC(=O)Oc1cc(C)c(OC(C)=O)c2ccccc12 [Acetomenaphthone] |  |  | collision cross section (N2) ([M+Na]+): 157.2 Å²
CC(=O)OCC[N+](C)(C)C [Acetylcholine] |  | 129.7 Å² | 
Nc1ncnc2c1ncn2[C@@H]1O[C@H](COP(=O)(O)OP(=O)(O)O)[C@@H](O)[C@H]1O [Adenosine 5'-diphosphate] |  | 186.1 Å² | 

Reference: the C3SDB collision cross section collection
